Measurements taken from ChEMBL document CHEMBL2434881, “Design and evaluation of novel 8-oxo-pyridopyrimidine Jak1/2 inhibitors” (Bioorg Med Chem Lett, 2013).
In brackets after ≈: the same amount, converted by molar mass.

Legend:
[1] = Aqueous kinetic solubility of the compound in PBS buffer at pH 7.4; type: physicochemical; conditions: read-out: Kinetic_solubility
[2] = Apparent permeability of the compound from apical to basolateral side of MDCK cells; type: ADME, cell-based, Canis lupus familiaris; conditions: dog

Row | Compound | solubility kinetic [1] [µM] | Papp A→B [2] [×10⁻⁶ cm/s]
1 | O=c1[nH]ccc2c(NC3CCCCC3)ncnc12 | 225 (≈ 55 µg/mL) | –
2 | CN(CCO)c1nc(N[C@@H]2CCC[C@@H]2C#N)c2cc[nH]c(=O)c2n1 (racemic) | 19 (≈ 6.24 µg/mL) | –
3 | N#C[C@H]1CCC[C@H]1Nc1nc(-c2ccccc2)nc2c(=O)[nH]ccc12 (racemic) | 11 (≈ 3.65 µg/mL) | –
4 | N#C[C@H]1CCC[C@H]1Nc1nc(N2CCOCC2)nc2c(=O)[nH]ccc12 (racemic) | 51 (≈ 17.4 µg/mL) | –
5 | O=c1[nH]ccc2c(NC3CCCC3)ncnc12 | 318 (≈ 73.2 µg/mL) | 2.5
6 | N#CC1CCCC1Nc1ncnc2c(=O)[nH]ccc12 (single isomer, unassigned; enantiomer 1) | 119 (≈ 30.4 µg/mL) | –
7 | CNc1nc(N[C@@H]2CCC[C@@H]2C#N)c2cc[nH]c(=O)c2n1 (racemic) | 74 (≈ 21 µg/mL) | –
8 | N#C[C@H]1CCC[C@H]1Nc1nc(N2CCCCC2)nc2c(=O)[nH]ccc12 (racemic) | 8.6 (≈ 2.91 µg/mL) | –
9 | N#C[C@H]1CCC[C@H]1Nc1nc(-c2cn[nH]c2)nc2c(=O)[nH]ccc12 (racemic) | 24 (≈ 7.71 µg/mL) | 0.2
10 | CCc1nc(N[C@@H]2CCC[C@@H]2C#N)c2cc[nH]c(=O)c2n1 (racemic) | 140 (≈ 39.7 µg/mL) | 0.6
11 | N#C[C@H]1CCC[C@H]1Nc1ncnc2c(=O)[nH]ccc12 (racemic) | 104 (≈ 26.5 µg/mL) | –
